For test [1], the target named is T1, human AR (androgen receptor) (Homo sapiens, UniProt P10275).
T1 construct: expressed in transfected cells; host or cells: 293 cells (293-AR lysate)
T1 sequence (P10275 1-920): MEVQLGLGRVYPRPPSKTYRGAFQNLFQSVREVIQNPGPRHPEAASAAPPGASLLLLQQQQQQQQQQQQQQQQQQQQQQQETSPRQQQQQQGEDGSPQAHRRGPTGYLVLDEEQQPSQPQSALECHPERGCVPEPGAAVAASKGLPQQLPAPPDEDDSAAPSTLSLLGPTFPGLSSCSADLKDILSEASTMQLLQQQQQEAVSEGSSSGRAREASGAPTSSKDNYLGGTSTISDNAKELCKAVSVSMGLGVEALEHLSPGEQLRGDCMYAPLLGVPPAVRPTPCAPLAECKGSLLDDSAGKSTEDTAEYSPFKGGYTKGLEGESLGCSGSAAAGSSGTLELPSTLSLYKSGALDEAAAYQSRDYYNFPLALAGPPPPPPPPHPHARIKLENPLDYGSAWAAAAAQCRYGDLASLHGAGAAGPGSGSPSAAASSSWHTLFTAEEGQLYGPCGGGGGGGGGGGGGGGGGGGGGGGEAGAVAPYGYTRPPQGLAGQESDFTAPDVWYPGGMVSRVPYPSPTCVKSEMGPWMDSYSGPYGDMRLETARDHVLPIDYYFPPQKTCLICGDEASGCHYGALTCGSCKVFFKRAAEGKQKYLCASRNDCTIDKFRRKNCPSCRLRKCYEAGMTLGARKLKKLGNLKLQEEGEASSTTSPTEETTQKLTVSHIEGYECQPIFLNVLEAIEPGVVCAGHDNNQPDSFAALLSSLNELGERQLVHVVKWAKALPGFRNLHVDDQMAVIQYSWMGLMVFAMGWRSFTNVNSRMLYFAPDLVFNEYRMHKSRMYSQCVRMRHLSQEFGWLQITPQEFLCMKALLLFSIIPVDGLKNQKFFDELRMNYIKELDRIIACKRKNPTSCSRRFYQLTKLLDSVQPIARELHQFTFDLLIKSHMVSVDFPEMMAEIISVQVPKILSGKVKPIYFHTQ
Briefly: Steroid hormone nuclear receptor binding assay, AR binding. The procedure:
Cell lysates from 293 cells overexpressing human GR (glucocorticoid receptor), AR (androgen receptor), MR (mineralocorticoid receptor) or PR (progesterone receptor) are used for competition binding assays to determine Ki values for test compounds. […] Competing compounds are added at various concentrations ranging from about 0.01 nM to 10 μM. Non-specific binding is determined in the presence of 500 nM dexamethasone for GR binding, 500 nM aldosterone for MR binding, or 500 nM methyltrienolone for AR and PR binding. The binding reaction (140 μl) is incubated for overnight at 4° C., then 70 μl of cold charcoal-dextran buffer (containing per 50 ml of assay buffer, 0.75 g of charcoal and 0.25 g of dextran) is added to each reaction. Plates are mixed 8 minutes on an orbital shaker at 4° C. Plates are then centrifuged at 3,000 rpm at 4° C. for 10 minutes. An aliquot of 120 μl of the mix is transferred to another 96-well plate and 175 μl of Wallac Optiphase “Hisafe 3” scintillation fluid is added to each well. Plates are sealed and shaken vigorously on an orbital shaker. After an incubation of 2 hrs, plates are read in a Wallac Microbeta counter. […] The Kd for ^3H-dexamethasone for GR binding, ^3H-methyltrienolone for AR binding, ^3H-aldosterone for MR binding, or ^3H-methyltrienolone for PR binding, is determined by saturation binding. The IC50 values for test compounds are converted to Ki using Cheng-Prusoff equation and the Kd determined by saturation binding assay. […]

The target in test [2] is T2, human androgen receptor (AR) (Homo sapiens, UniProt P10275).
T2 construct: expressed in transfected cells; host or cells: mouse myoblast C2C12 cells, transiently co-transfected
T2 sequence (P10275 1-920): T1 sequence (P10275 1-920)
Briefly: C2C12 AR/ARE reporter assay. Type of test: cell-based. How it is done:
As an indicator of agonist activity in muscle tissue, the C2C12 AR/ARE reporter assay is performed. Briefly, mouse myoblast C2C12 cells are co-transfected using FuGENE™. […] Cells are transfected in T150 cm^2 flasks in DMEM media with 4% or 10% Fetal Bovine Serum […]. After a 5 hour incubation, transfected cells are trypsinized, plated in 96 well dishes in DMEM media containing 10% charcoal-stripped FBS, incubated for 2 h and then exposed to various concentrations of test compounds ranging from about 0.01 nM to 10 μM. After 48 h of incubations with compounds, cells are lysed and luciferase activity is determined using standard techniques. Data is fit to a 4 parameter-fit logistics to determine EC50 values. The % efficacy is determined versus maximum stimulation obtained with 10 nM methyltrienolone. […]
On the technique in general: Reporter assays use an easily measured gene product as a stand-in for the process of interest.

Setting [3] is: C2C12, read-out: C2C12 % Efficacy.
Where [4] appears, read: average of n trials, read-out: AR binding Ki.
Setting [5] is: C2C12 AR/ARE reporter assay, average of n trials, read-out: C2C12 EC50.
Setting [6] is: C2C12 AR/ARE reporter assay, average of n trials, read-out: C2C12 % Efficacy.

Molecules are shown by their SMILES. pEC50, pKi: −log10 of the molar value. Where two headings read alike, the source gives them in different places.

By pKi is commonly meant the negative decadic logarithm of the Ki, by convention in mol/L. Usually pEC50 stands for the negative decadic logarithm of the EC50, by convention in mol/L. Molecule `COc1ccc2c(c1)c1c(n2Cc2ccccc2Cl)CCC(NC(=O)C(C)C)C1` (centres unmarked) [Example 69, N-[9-(2-Chloro-benzyl)-6-methoxy-2,3,4,9-tetrahydro-1H-carbazol-3-yl]-isobutyramide] had a negative-log Ki (pKi) in test [1] of 7.47. In test [2], this molecule gave a negative-log EC50 (pEC50) of 6.67. Besides, the Emax in test [2] (setting [3]) turned out to be 63.3%.
`COc1ccc2c(c1)c1c(n2Cc2cccc(Cl)c2)CCC(NC(=O)C(C)C)C1` (centres unmarked) [Example 70] gave a pKi in test [1] of 8.00. The molecule further had a pEC50 in test [2] of 7.40. In test [2] (setting [3]), the Emax amounted to 63.9%.
`COc1ccc2c(c1)c1c(n2Cc2ccc(Cl)cc2)CCC(NC(=O)C(C)C)C1` (centres unmarked) [Example 71] gave a pKi in test [1] of 7.08. Also, the pEC50 in test [2] is 6.40. The Emax in test [2] (setting [3]) was found to be 40.7%.
Take `COc1cccc(Cn2c3c(c4cc(OC)ccc42)CC(NC(=O)C(C)C)CC3)c1` (centres unmarked) [Example 73]: in test [1], the pKi is 7.28. The molecule further showed a pEC50 in test [2] of 6.64. Besides, the Emax in test [2] (setting [3]) is 54.7%.
Turning to `COc1cccc2c3c(n(Cc4ccccc4)c12)CCC(NC(=O)C(C)C)C3` (centres unmarked) [Example 76], in test [1], the pKi is 6.32. In test [2], this molecule showed a pEC50 of 5.77. In test [2] (setting [3]), the Emax was found to be 58.1%.
On to `COc1ccc2c3c(n(Cc4ccccc4)c2c1)CCC(NC(=O)C(C)C)C3` (centres unmarked) [Example 77], for which, in test [1], the pKi is 6.99. In addition, the pEC50 in test [2] is 5.92. Also, in test [2] (setting [3]), the Emax turned out to be 74.9%.
In test [1], `COc1ccc2c(c1)c1c(n2Cc2ccccc2F)CCC(NC(=O)C(C)C)C1` (centres unmarked) [Example 78] had a negative logarithm of the Ki (pKi) of 6.73. The negative-log EC50 (pEC50) in test [2] was 6.62. Moreover, the Emax in test [2] (setting [3]) was 71.5%.
Take `COc1ccc2c(c1)c1c(n2Cc2cccc(F)c2)CCC(NC(=O)C(C)C)C1` (centres unmarked) [Example 79, N-[9-(3-fluoro-benzyl)-methoxy-2,3,4,9-tetrahydro-1H-carbazol-3-yl]-isobutyramide]: the pKi in test [1] (setting [4]) is 7.55. The “C2C12 % Efficacy” value in test [2] (C2C12 AR/ARE reporter assay, average of n trials) was 85.7%. Besides, the pEC50 in test [2] (setting [5]) is 7.79.
With `CC(C)C(=O)NC1CCc2c(c3cc(Cl)ccc3n2Cc2cccc(Br)c2)C1` (centres unmarked) [Example 81], in test [1], the pKi is 7.95. The negative-log EC50 (pEC50) in test [2] was 7.03. Further, the Emax in test [2] (setting [3]) stood at 81.9%.
On the same counts, the results for `Cc1cccc(Cn2c3c(c4cc(Cl)ccc42)CC(NC(=O)C(C)C)CC3)c1` (centres unmarked) [Example 82] are 8.21, 7.43 and 87.3%.
On the same counts, the results for `CC(C)C(=O)NC1CCc2c(c3cc(Cl)ccc3n2Cc2cccc(C(F)(F)F)c2)C1` (centres unmarked) [Example 83] are 7.53, 7.07 and 93.1%.
In turn, `CC(C)C(=O)NC1CCc2c(c3cc(C#N)ccc3n2Cc2ccccc2)C1` (centres unmarked) [Example 85] had a pKi in test [1] of 8.34. The molecule further had a negative-log EC50 (pEC50) in test [2] of 8.42. Besides, the Emax in test [2] (setting [3]) was determined as 79.8%.
On to `CC(C)C(=O)NC1CCc2c(c3cc(C#N)ccc3n2Cc2cccc(Br)c2)C1` (centres unmarked) [Example 86], for which the pKi in test [1] was 8.59. The negative logarithm of the EC50 (pEC50) in test [2] was 7.44. The Emax in test [2] (setting [3]) was found to be 93.9%.
On to `COc1ccc(Cn2c3c(c4cc(C#N)ccc42)CC(NC(=O)C(C)C)CC3)cc1` (centres unmarked) [Example 87], for which, in test [1], the pKi was 7.75. Also, the Emax in test [2] (setting [3]) is 10.6%.
The molecule `CC(C)C(=O)NC1CCc2c(c3cc(C#N)ccc3n2Cc2cc(F)cc(F)c2)C1` (centres unmarked) [Example 89] had a pKi in test [1] of 8.48. The same molecule showed a pEC50 in test [2] of 8.72. Besides, the Emax in test [2] (setting [3]) was 78.5%.
On the same counts, the results for `CC(C)C(=O)NC1CCc2c(c3cc(C#N)ccc3n2Cc2cccc(N)c2)C1` (centres unmarked) [Example 90, N-[9-(3-Amino-benzyl)-6-cyano-2,3,4,9-tetrahydro-1H-carbazol-3-yl]-isobutyramide] are 7.52, 6.91 and 67.6%.
On the same counts, the results for `CC(C)C(=O)NC1CCc2c(c3cc(O)ccc3n2Cc2cccc(F)c2)C1` (centres unmarked) [Example 91, N-[9-(3-Fluoro-benzyl)-6-hydroxy-2,3,4,9-tetrahydro-1H-carbazol-3-yl]-isobutyramide] are 7.93, 7.01 and 86.9%.
In the same order, the values of `CC(C)C(=O)NC1CCc2c(c3cc(OCC4CC4)ccc3n2Cc2cccc(F)c2)C1` (centres unmarked) [Example 92, N-[6-Cyclopropylmetboxy-9-(3-fluoro-benzyl)-2,3,4,9-tetrahydro-1H-carbazol-3-yl]-isobutyramide] are 8.39, 8.52 and 73.4%.
On to `CCOc1ccc2c(c1)c1c(n2Cc2cccc(F)c2)CCC(NC(=O)C(C)C)C1` (centres unmarked) [Example 93, N-[6-Ethoxy-9-(3-fluoro-benzyl)-2,3,4,9-tetrahydro-1H-carbazol-3-yl]-isobutyramide], for which the negative-log Ki (pKi) in test [1] was 8.17. Further, the pEC50 in test [2] was 8.30. Moreover, the Emax in test [2] (setting [3]) worked out at 82.4%.
On the same counts, the results for `CC(C)Oc1ccc2c(c1)c1c(n2Cc2cccc(F)c2)CCC(NC(=O)C(C)C)C1` (centres unmarked) [Example 94, N-[9-(3-Fluoro-benzyl)-6-isopropoxy-2,3,4,9-tetrahydro-1H-carbazol-3-yl]-isobutyramide] are 7.42, 7.39 and 101%.
In the same order, the values of `CCCOc1ccc2c(c1)c1c(n2Cc2cccc(F)c2)CCC(NC(=O)C(C)C)C1` (centres unmarked) [Example 95, N-[9-(3-Fluoro-benzyl)-6-propoxy-2,3,4,9-tetrahydro-1H-carbazol-3-yl]-isobutyramide] are 7.91, 7.74 and 79.6%.
`CC(C)C(=O)NC1CCc2c(c3cc(Cl)ccc3n2Cc2ccccc2O)C1` (centres unmarked) [Example 101, N-[6-Chloro-9-(2-hydroxy-benzyl)-2,3,4,9-tetrahydro-1H-carbazol-3-yl]-isobutyramide]: the pKi in test [1] was 8.28. The negative logarithm of the EC50 (pEC50) in test [2] was 8.39. Besides, the Emax in test [2] (setting [3]) is 65.3%.
In the same order, the values of `CC(C)C(=O)NC1CCc2c(c3cc(Cl)ccc3n2Cc2cccc(O)c2)C1` (centres unmarked) [Example 102, N-[^6-Chloro-9-(3-hydroxy-benzyl)-2,3,4,9-tetrahydro-1H-carbazol-3-yl]-isobutyramide] are 7.77, 6.52 and 39.6%.
For the molecule `CC(C)C(=O)NC1CCc2c(c3cc(Cl)ccc3n2Cc2ccc(O)cc2)C1` (centres unmarked) [Example 103, N-[6-Chloro-9-(4-hydioxy-benzyl)-2,3,4,9-tetrahydro-1H-carbazol-3-yl]-isobutyramide], the negative-log Ki (pKi) in test [1] (setting [4]) was 7.29. In test [2] (setting [6]), the Emax came to 32.8%. In addition, the pEC50 in test [2] (setting [5]) was 6.53.
On the same counts, the results for `CC(C)C(=O)NC1CCc2c(c3cc(Cl)ccc3n2Cc2ccccc2[N+](=O)[O-])C1` (centres unmarked) [Example 104, N-[6-Chloro-9-(2-nitro-benzyl)-2,3,4,9-tetrahydro-1H-carbazol-3-yl]-isobutyramide] are 7.65, 71.6% and 6.26.

The values above are taken from patent publication US7935722B2 (Eli Lilly and Company, priority 2005, dated 2011).
